Experiments:
CD69 = experiment: Induction of CD69 in human whole blood; format: cell-based; details: 17 h, CD69 surface staining, 100% set to 1 uM resiquimod, average where assay repeated, Table A1, read-out: hWB CD69 EC50
Procedure: The induction of Type I interferon (IFN) MX-1 genes and the B-cell activation marker CD69 are downstream events that occur upon activation of the TLR7 pathway. The following is a human whole blood assay that measures their induction in response to a TLR7 agonist.
Heparinized human whole blood was harvested from human subjects and treated with test TLR7 agonist compounds at 1 mM. The blood was diluted with RPMI 1640 media and Echo was used to predot 10 nL per well giving a final concentration of 1 uM (10 nL in 10 uL of blood). After mixing on a shaker for 30 sec, the plates were covered and placed in a 37° C. chamber for o/n=17 hrs. Fixing/lysis buffer was prepared (5×->1× in H2O, warm at 37° C.; Cat #BD 558049) and kept the perm buffer (on ice) for later use.
For surface markers staining (CD69): prepared surface Abs: 0.045 ul hCD14-FITC (ThermoFisher Cat #MHCD1401)+0.6 ul hCD19-ef450 (ThermoFisher Cat #48-0198-42)+1.5 ul hCD69-PE (cat #BD555531)+0.855 ul FACS buffer. Added 3 ul/well, spin1000 rpm for 1 min and mixed on shaker for 30 sec, put on ice for 30 mins. Stop stimulation after 30 minutes with 70 uL of prewarmed 1× fix/lysis buffer and use Feliex mate to resuspend (15 times, change tips for each plate) and incubate at 37C for 10 minutes.
Centrifuge at 2000 rpm for 5 minutes aspirate with HCS plate washer, mix on shaker for 30 sec and then wash with 70 uL in dPBS and pelleted 2×s (2000 rpm for 5 min) and 50 ul wash in FACS buffer pelleted 1×s(2000 rpm for 5 min). Mix on shaker for 30 sec. For Intracellular markers staining (MX-1): Add 50 ul of BD Perm buffer III and mix on shaker for 30 sec. Incubate on ice for 30 minutes (in the dark). Wash with 50 uL of FACS buffer 2× (spin @2300 rpm×5 min after perm) followed by mixing on shaker for 30 sec. Resuspended in 20 ul of FACS buffer containing MX1 antibody ( ) (4812)-Alexa 647: Novus Biologicals #NBP2-43704AF647) 20 ul FACS bf+0.8 ul hlgG+0.04 ul MX-1. Spin 1000 rpm for 1 min, mix on shaker for 30se and the samples were incubated at RT in the dark for 45 minutes followed by washing 2×FACS buffer (spin @2300 rpm×5 min after perm). Resuspend 20 ul (35 uL total per well) of FACS buffer and cover with foil and place in 4° C. to read the following day. Plates were read on iQuePlus. The results were loaded into toolset and IC50 curves are generated in curve master. The y-axis 100% is set to 1 uM of resiquimod.

human TLR7 = biological target: T1, human TLR7 (Homo sapiens, UniProt Q9NYK1); experiment: Human TLR7 agonist activity reporter assay (HEK-Blue TLR7 cells, SEAP reporter); format: cell-based; details: 18 h treatment, average where assay repeated, Table A1, read-out: hTLR7 Agonism EC50
T1 construct: host or cells: HEK-Blue TLR7 cells (engineered human embryonic kidney cells)
T1 sequence (Q9NYK1 27-1049): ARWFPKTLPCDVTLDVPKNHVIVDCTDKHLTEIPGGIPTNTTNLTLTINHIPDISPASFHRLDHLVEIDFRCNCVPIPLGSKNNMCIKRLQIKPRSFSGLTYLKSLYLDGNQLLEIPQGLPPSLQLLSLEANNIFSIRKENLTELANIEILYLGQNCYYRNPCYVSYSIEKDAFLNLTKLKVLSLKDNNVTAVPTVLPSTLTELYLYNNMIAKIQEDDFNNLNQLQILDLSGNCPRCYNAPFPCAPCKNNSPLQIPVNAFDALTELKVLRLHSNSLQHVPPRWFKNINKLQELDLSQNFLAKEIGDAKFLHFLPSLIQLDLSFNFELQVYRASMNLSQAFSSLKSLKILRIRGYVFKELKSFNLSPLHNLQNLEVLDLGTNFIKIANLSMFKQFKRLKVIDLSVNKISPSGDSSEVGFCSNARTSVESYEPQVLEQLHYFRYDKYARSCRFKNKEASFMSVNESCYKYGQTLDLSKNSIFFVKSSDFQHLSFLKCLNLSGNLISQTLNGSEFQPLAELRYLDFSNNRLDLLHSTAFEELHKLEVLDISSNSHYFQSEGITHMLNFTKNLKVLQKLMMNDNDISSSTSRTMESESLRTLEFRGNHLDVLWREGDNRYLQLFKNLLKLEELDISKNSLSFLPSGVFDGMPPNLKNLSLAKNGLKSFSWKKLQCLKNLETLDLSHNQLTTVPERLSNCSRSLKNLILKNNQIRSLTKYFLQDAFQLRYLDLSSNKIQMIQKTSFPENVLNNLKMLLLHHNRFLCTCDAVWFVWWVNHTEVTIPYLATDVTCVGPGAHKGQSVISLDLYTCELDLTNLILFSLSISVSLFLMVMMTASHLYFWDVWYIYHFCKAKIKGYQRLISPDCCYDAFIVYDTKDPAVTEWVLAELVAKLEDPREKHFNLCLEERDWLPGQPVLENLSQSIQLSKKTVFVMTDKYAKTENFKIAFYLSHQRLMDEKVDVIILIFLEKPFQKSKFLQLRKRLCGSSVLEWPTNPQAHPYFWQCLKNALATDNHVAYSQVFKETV
Procedure: This procedure describes a method for assaying human TLR7 (hTLR7) agonist activity of the compounds disclosed in this specification.
HEK-Blue™ TLR7 cells were added to each well of a 384-well tissue-culture plate (15,000 cells per well) and incubated 16-18 h at 37° C., 5% CO2. Compounds (100 nl) were dispensed into wells containing the HEK-Blue™ TLR cells and the treated cells were incubated at 37° C., 5% CO2. After 18 h treatment ten microliters of freshly-prepared Quanti-Blue™ reagent (Invivogen) was added to each well, incubated for 30 min (37° C., 5% CO2) and SEAP levels measured using an Envision plate reader (OD=620 nm). The half maximal effective concentration values (EC50; compound concentration which induced a response halfway between the assay baseline and maximum) were calculated.

Compound	EC50 (CD69) [nM]	EC50 (human TLR7) [nM]
4-[3-({5-amino-7-[({spiro- [2.3]hexan-5-yl}methyl)- amino]-1H-pyrazolo[4,3- d]pyrimidin-1-yl}methyl)-4- methoxybenzoyl]piperazin- 2-one [Compound 153]	485	2250
CCCCNc1nc(N)nc2cnn(Cc3cc(CN4CC(OC)C4)ccc3OC)c12 [Compound 105, N7-butyl-1-({2-methoxy-5-[(3-methoxyazetidin-1-yl)methyl]phenyl}methyl)-1H-pyrazolo[4,3-d]pyrimidine-5,7-diamine]	90.9	124
CCCCNc1nc(N)nc2cnn(Cc3cc(CN)ccc3OC)c12 [Compound 114, 1-{[5-(aminomethyl)-2-methoxyphenyl]methyl}-N7-butyl-1H-pyrazolo[4,3-d]pyrimidine-5,7-diamine]	6.7	234
CCCCNc1nc(N)nc2cnn(Cc3cc(CNC4CC(O)C4)ccc3OC)c12 (stereo not shown) [Compound 116, (1r,3r)-3-{[(3-{[5-amino-7-(butylamino)-1H-pyrazolo-[4,3-d]pyrimidin-1-yl]methyl}-4-methoxyphenyl)-methyl]amino}cyclobutan-1-ol]	205	335
CCCCNc1nc(N)nc2cnn(Cc3cc(CNC4CC45CC5)ccc3OC)c12 (stereo not shown) [Compound 117, N7-butyl-1-({2-methoxy-5-[({spiro[2.2]pentan-1-yl}amino)methyl]phenyl}methyl)-1H-pyrazolo[4,3-d]pyrimidine-5,7-diamine]	156	562
CCCCNc1nc(N)nc2cnn(Cc3cc(CN4CC5CC4CN5)ccc3OC)c12 (stereo not shown) [Compound 118, N7-butyl-1-{[5-({2,5-diaza-bicyclo[2.2.1]heptan-2-yl}methyl)-2-methoxy-phenyl]methyl}-1H-pyrazolo[4,3-d]pyrimidine-5,7-diamine]	335	423
CCCCNc1nc(N)nc2cnn(Cc3cc(CNC4(C)CCOCC4)ccc3OC)c12 [Compound 119, N7-butyl-1-[(2-methoxy-5-{[(4-methyloxan-4-yl)amino]methyl}phenyl)methyl]-1H-pyrazolo[4,3-d]pyrimidine-5,7-diamine]	227	529
CCCCNc1nc(N)nc2cnn(Cc3cc(CNC4CCCC4)ccc3OC)c12 [Compound 120]	288	548
CCCCNc1nc(N)nc2cnn(Cc3cc(CNC4CC4)ccc3OC)c12 [Compound 121]	56.9	116
CCCCNc1nc(N)nc2cnn(Cc3cc(CNC4COC4)ccc3OC)c12 [Compound 122, N7-butyl-1-[(2-methoxy-5-{[(oxetan-3-yl)amino]-methyl}phenyl)methyl]-1H-pyrazolo[4,3-d]pyrimidine-5,7-diamine]	225	548
CCCCNc1nc(N)nc2cnn(Cc3cc(CN4CC5COCC5C4)ccc3OC)c12 (stereo not shown) [Compound 123, N7-butyl-1-{[5-({hexa-hydro-1H-furo[3,4-c]pyrrol-5-yl}methyl)-2-methoxyphenyl]methyl}-1H-pyrazolo[4,3-d] pyrimidine-5,7-diamine]	89.8	158
CCCCNc1nc(N)nc2cnn(Cc3cc(CN4CC5(COC5)C4)ccc3OC)c12 [Compound 124, N7-butyl-1-{[2-methoxy-5-({2-oxa-6-azaspiro-[3.3]heptan-6-yl}-methyl)phenyl]methyl}-1H-pyrazolo[4,3-d]pyrimidine-5,7-diamine]	86.3	190
CCCCNc1nc(N)nc2cnn(Cc3cc(CN4CC5(C4)CN(C(=O)C4CCC4)C5)ccc3OC)c12 [Compound 125, N7-butyl-1-{[5-({6-cyclobutanecarbonyl-2,6-diazaspiro[3.3]heptan-2-yl}methyl)-2-methoxy-phenyl]methyl}-1H-pyrazolo[4,3-d]pyrimidine-5,7-diamine]	369	191
CCCCNc1nc(N)nc2cnn(Cc3cc(CN(C)CCNC)ccc3OC)c12 [Compound 126, N7-butyl-1-{[2-methoxy-5-({methyl[2-(methylamino)-ethyl]amino}methyl)phenyl]methyl}-1H-pyrazolo[4,3-d]pyrimidine-5,7-diamine]	98.9	158
CCCCNc1nc(N)nc2cnn(Cc3cc(CN4CCN(CCO)CC4)ccc3OC)c12 [Compound 127, 2-{4-[(3-{[5-amino-7-(butylamino)-1H-- pyrazolo[4,3-d]pyrimidin-1-yl]methyl}-4-methoxy-phenyl)methyl]piperazin-1-yl}ethan-1-ol]	47.5	107
CCCCNc1nc(N)nc2cnn(Cc3cc(CN(C)C(=O)CCN(C)C)ccc3OC)c12 [Compound 128, N-[(3-{[5-amino-7-(butyl-amino)-1H-pyrazolo[4,3-d]pyrimidin-1-yl]methyl}-4-methoxyphenyl)methyl]-3-(dimethylamino)-N-methylpropanamide]	12.6	56.2
CCCCNc1nc(N)nc2cnn(Cc3cc(CNCC4(N)CCC4)ccc3OC)c12 [Compound 129, 1-{[5-({[(1-aminocyclo-butyl)methyl]amino}methyl)-2-methoxyphenyl]methyl}-N7-butyl-1H-pyrazolo[4,3-d]pyrimidine-5,7-diamine]	60.9	587
CCCCNc1nc(N)nc2cnn(Cc3cc(CN4CCN(C5CCC5)CC4)ccc3OC)c12 [Compound 130, N7-butyl-1-({5-[(4-cyclobutylpiperazin-1-yl)methyl]-2-methoxy-phenyl}methyl)-1H-pyrazolo[4,3-d]pyrimidine-5,7-diamine]	516	49.9
CCCCNc1nc(N)nc2cnn(Cc3cc(CN4CCCN(C)CC4)ccc3OC)c12 [Compound 131, N7-butyl-1-({2-methoxy-5-[(4-methyl-1,4-diazepan-1-yl)methyl]phenyl}methyl)-1H-pyrazolo[4,3-d] pyrimidine-5,7-diamine]	85.9	112
CCCCNc1nc(N)nc2cnn(Cc3cc(CNC)ccc3OC)c12 [Compound 132, N7-butyl-1-(2-methoxy-5-((methylamino)methyl)benzyl)-1H-pyrazolo[4,3-d]pyrimidine-5,7-diamine]	10.9	187
